Experiments:
[1] = target: T1, CK2α (Homo sapiens, UniProt P68400); assay: Biochemical assay for inhibitors of CK2α kinase activity (ADP-Glo); conditions: 0.2 nM CK2α, 50 μM peptide substrate, 15 μM ATP, read-out: Assay 1: CK2α Enzyme IC50
T1 construct: CK2α (residues 2-329) was produced in Escherichia coli BL21 (DE3) for kinase activity screening; His6 (N, cleaved yes); made in house; host or cells: Escherichia coli BL21 (DE3)
T1 sequence (P68400 2-329): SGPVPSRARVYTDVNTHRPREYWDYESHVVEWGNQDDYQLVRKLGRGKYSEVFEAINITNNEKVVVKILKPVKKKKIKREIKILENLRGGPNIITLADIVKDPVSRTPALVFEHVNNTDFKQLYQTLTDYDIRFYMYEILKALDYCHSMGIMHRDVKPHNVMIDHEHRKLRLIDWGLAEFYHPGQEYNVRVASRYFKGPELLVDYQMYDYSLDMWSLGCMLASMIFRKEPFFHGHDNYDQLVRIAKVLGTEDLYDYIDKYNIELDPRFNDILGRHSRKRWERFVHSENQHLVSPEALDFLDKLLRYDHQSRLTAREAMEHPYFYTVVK

[2] = target: T2, CLK2 (Homo sapiens, UniProt P49760); assay: Biochemical assay for inhibitors of CLK2 kinase activity (ADP-Glo); conditions: 20 nM CLK2, 50 μM peptide substrate, 100 μM ATP, read-out: Assay 2: CLK2 Enzyme IC50
T2 construct: purchased Carna Biosciences 04-127
T2 sequence (P49760 whole entry): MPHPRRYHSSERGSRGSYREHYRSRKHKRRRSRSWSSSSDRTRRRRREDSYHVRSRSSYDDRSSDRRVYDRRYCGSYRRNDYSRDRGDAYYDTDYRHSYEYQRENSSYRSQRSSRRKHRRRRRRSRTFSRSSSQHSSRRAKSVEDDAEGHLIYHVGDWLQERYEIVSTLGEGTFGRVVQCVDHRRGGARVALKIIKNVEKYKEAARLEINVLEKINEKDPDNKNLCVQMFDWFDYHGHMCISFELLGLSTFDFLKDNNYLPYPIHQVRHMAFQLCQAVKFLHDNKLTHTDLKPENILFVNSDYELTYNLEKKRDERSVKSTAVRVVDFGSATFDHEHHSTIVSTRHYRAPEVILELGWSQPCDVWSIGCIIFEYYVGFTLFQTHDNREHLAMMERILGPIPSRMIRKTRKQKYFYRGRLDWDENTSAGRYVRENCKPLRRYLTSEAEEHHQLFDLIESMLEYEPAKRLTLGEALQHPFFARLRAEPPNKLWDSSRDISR

[3] = target: T3, intracellular CK2α (Homo sapiens, UniProt P19784); assay: Cell-based NanoBRET assay for inhibitor binding to intracellular CK2α; conditions: HCT116 cells transiently transfected with CSNK2A2-NanoLuc fusion vector; Tracer K-5; 2 h; read-out: Assay 3: NanoBRET ™ assay for binding to intracellular CK2α
T3 construct: host or cells: HCT116 (ATCC CCL-247)
T3 sequence (P19784 whole entry, the tested form may be a part): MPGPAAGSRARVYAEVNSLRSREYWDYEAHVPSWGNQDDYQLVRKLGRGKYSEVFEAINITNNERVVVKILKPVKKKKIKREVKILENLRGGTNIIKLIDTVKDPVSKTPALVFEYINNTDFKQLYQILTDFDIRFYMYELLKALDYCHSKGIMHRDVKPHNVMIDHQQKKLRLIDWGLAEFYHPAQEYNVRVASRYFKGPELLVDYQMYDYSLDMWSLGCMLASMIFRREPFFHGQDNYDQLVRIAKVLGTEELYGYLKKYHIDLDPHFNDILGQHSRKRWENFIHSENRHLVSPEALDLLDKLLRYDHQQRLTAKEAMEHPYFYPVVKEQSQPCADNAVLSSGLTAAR
Procedure, shortened: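 Apparent affinity came from BRET ratio (acceptor/donor ×1,000), with donor read at 450 nm and acceptor at 610 or 630 nm. Compounds competed off a tracer added at fixed concentration to cells carrying a NanoLuc-CK2α fusion.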

Compound | IC50 [1] | IC50 [2] | IC50 [3]
N#Cc1cc(-c2cc(NCCCNC(=O)CCNCc3ccc(OC(F)(F)F)c(Cl)c3)c3cn[nH]c3c2)cnn1 [Example 187, 3-((3-chloro-4-(trifluoromethoxy)benzyl)amino)-N-(3-((6-(6-cyanopyridazin-4-yl)-1H-indazol-4-yl)amino)propyl)propanamide] | 8.62 nM | 4680 nM | 949 nM
Nc1cc(-c2cc(NCCCNC(=O)CCNCc3ccc(OC(F)(F)F)c(Cl)c3)c3cn[nH]c3c2)cnn1 [Example 188, N-(3-((6-(6-aminopyridazin-4-yl)-1H-indazol-4-yl)amino)propyl)-3-((3-chloro-4-(trifluoromethoxy)benzyl)amino)propanamide] | 0.5 nM | 52.9 nM | 516 nM
O=C(CCNCc1ccc(OC(F)(F)F)c(Cl)c1)NCCCNc1cc(-c2ncon2)cc2[nH]ncc12 [Example 189, N-(3-((6-(1,2,4-oxadiazol-3-yl)-1H-indazol-4-yl)amino)propyl)-3-((3-chloro-4-(trifluoromethoxy)benzyl)amino)propanamide] | 19.2 nM | 3500 nM | 1630 nM
CNc1n[nH]c2cc(-n3cnnc3)cc(NCCOCCCCNCc3cc(F)c(OC(F)(F)F)c(F)c3)c12 [Example 190, N4-(2-(4-((3,5-difluoro-4-(trifluoromethoxy)benzyl)amino)butoxy)ethyl)-N3-methyl-6-(4H-1,2,4-triazol-4-yl)-1H-indazole-3,4-diamine] | 1.45 nM | 1100 nM | 74 nM
CNc1n[nH]c2cc(-n3cnnc3)cc(NCCCNC(=O)CCNCc3ccc(OC(F)(F)F)c(Cl)c3)c12 [Example 191, 3-((3-chloro-4-(trifluoromethoxy)benzyl)amino)-N-(3-((3-(methylamino)-6-(4H-1,2,4-triazol-4-yl)-1H-indazol-4-yl)amino)propyl)propanamide] | 0.57 nM | 133 nM | 842 nM
C[C@@H](CCCOCCNc1cc(-n2cnnc2)cc2[nH]ncc12)NCc1cc(CO)cc(OC(F)(F)F)c1 [Example 192, (S)-(3-(((5-(2-((6-(4H-1,2,4-triazol-4-yl)-1H-indazol-4-yl)amino)ethoxy)pentan-2-yl)amino)methyl)-5-(trifluoromethoxy)phenyl)methanol] | 10.6 nM | 665 nM | 377 nM
C[C@@H](CCCOCCNc1cc(-c2cnnc(O)c2)cc2[nH]ncc12)NCc1cc(CO)cc(OC(F)(F)F)c1 [Example 193, (S)-5-(4-((2-((4-((3-(hydroxymethyl)-5-(trifluoromethoxy)benzyl)amino)pentyl)oxy)ethyl)amino)-1H-indazol-6-yl)pyridazin-3-ol] | 1.21 nM | 355 nM | 87.1 nM
C[C@@H](CCCOCCNc1cc(-c2cnnc(O)c2)cc2[nH]ncc12)NCc1cc(CC#N)cc(OC(F)(F)F)c1 [Example 194, (S)-2-(3-(((5-(2-((6-(6-hydroxypyridazin-4-yl)-1H-indazol-4-yl)amino)ethoxy)pentan-2-yl)amino)methyl)-5-(trifluoromethoxy)phenyl)acetonitrile] | 0.76 nM | 195 nM | 14.9 nM
C[C@@H](CCCOCCNc1cc(-c2cnnc(O)c2)cc2[nH]ncc12)NCc1cc(Cc2cnco2)cc(OC(F)(F)F)c1 [Example 195, (S)-5-(4-((2-((4-((3-(oxazol-5-ylmethyl)-5-(trifluoromethoxy)benzyl)amino)pentyl)oxy)ethyl)amino)-1H-indazol-6-yl)pyridazin-3-ol] | 0.41 nM | 227 nM | 21.4 nM
C[C@@H](CCCOCCNc1cc(-c2cnoc2)cc2[nH]ncc12)NCc1cc(OC(F)(F)F)cc(C(N)=O)c1 [Example 196, (S)-3-(((5-(2-((6-(isoxazol-4-yl)-1H-indazol-4-yl)amino)ethoxy)pentan-2-yl)amino)methyl)-5-(trifluoromethoxy)benzamide] | 12.4 nM | 301 nM | 54.7 nM
O=C(O)c1cc(NCCOCCCCNCc2cc(F)c(OC(F)(F)F)c(F)c2)c2cn[nH]c2c1 [Example 197, 4-((2-(4-((3,5-difluoro-4-(trifluoromethoxy)benzyl)amino)butoxy)ethyl)amino)-1H-indazole-6-carboxylic acid] | > 1000 nM | > 50000 nM | > 3000 nM
O=C(O)Cc1cc(NCCOCCCCNCc2cc(F)c(OC(F)(F)F)c(F)c2)c2cn[nH]c2c1 [Example 198, 2-(4-((2-(4-((3,5-difluoro-4-(trifluoromethoxy)benzyl)amino)butoxy)ethyl)amino)-1H-indazol-6-yl)acetic acid] | 72.6 nM | > 50000 nM | > 3000 nM
OCCOc1cc(CNC2CC(COCCOc3cc(-c4cnnc(O)c4)cc4[nH]ncc34)C2)cc(OC(F)(F)F)c1 (stereo not drawn) [Example 199, 5-(4-(2-((3-((3-(2-hydroxyethoxy)-5-(trifluoromethoxy)benzyl)amino)cyclobutyl)methoxy)ethoxy)-1H-indazol-6-yl)pyridazin-3-ol] | 21.5 nM | 1210 nM | 1940 nM
OCc1cc(CNC2CC(COCCOc3cc(-c4cnnc(O)c4)cc4[nH]ncc34)C2)cc(OC(F)(F)F)c1 (stereo not drawn) [Example 200] | 38.2 nM | 594 nM | 2960 nM
O=C(O)CCc1cc(NCCOCCCCNCc2cc(F)c(OC(F)(F)F)c(F)c2)c2cn[nH]c2c1 [Example 201, 3-(4-((2-(4-((3,5-difluoro-4-(trifluoromethoxy)benzyl)amino)butoxy)ethyl)amino)-1H-indazol-6-yl)propanoic acid] | 0.87 nM | 7830 nM | 142 nM
OCCOc1cc(CNCCCCOCCNc2cccc3[nH]ncc23)cc(OC(F)(F)F)c1 [Example 202, 2-(3-(((4-(2-((1H-indazol-4-yl)amino)ethoxy)butyl)amino)methyl)-5-(trifluoromethoxy)phenoxy)ethan-1-ol] | 216 nM | 23300 nM | > 3000 nM
OCc1cc(CNC2CC(COCCNc3cc(-c4cnns4)cc4[nH]ncc34)C2)cc(OC(F)(F)F)c1 (stereo not drawn) [Example 203, (3-(((3-((2-((6-(1,2,3-thiadiazol-5-yl)-1H-indazol-4-yl)amino)ethoxy)methyl)cyclobutyl)amino)methyl)-5-(trifluoromethoxy)phenyl)methanol] | 36.1 nM | 307 nM | 546 nM
N#CCc1cc(NCCOCCCCNCc2cc(CO)cc(OC(F)(F)F)c2)c2cn[nH]c2c1 [Example 204, 2-(4-((2-(4-((3-(hydroxymethyl)-5-(trifluoromethoxy)benzyl)amino)butoxy)ethyl)amino)-1H-indazol-6-yl)acetonitrile] | 46.2 nM | 3440 nM | 405 nM
OCCOc1cc(CNC2CC(COCCNc3cc(-c4cnns4)cc4[nH]ncc34)C2)cc(OC(F)(F)F)c1 (stereo not drawn) [Example 205] | 12.7 nM | 214 nM | 467 nM
CC(C)(C#N)c1cc(NCCOCCCCNCc2cc(CO)cc(OC(F)(F)F)c2)c2cn[nH]c2c1 [Example 206, 2-(4-((2-(4-((3-(hydroxymethyl)-5-(trifluoromethoxy)benzyl)amino)butoxy)ethyl)amino)-1H-indazol-6-yl)-2-methylpropanenitrile] | 63.9 nM | 2260 nM | 595 nM
C[C@@H](CCCOCCNc1cc(-c2cnns2)cc2[nH]ncc12)NCc1cc(CO)cc(OC(F)(F)F)c1 [Example 207, (S)-(3-(((5-(2-((6-(1,2,3-thiadiazol-5-yl)-1H-indazol-4-yl)amino)ethoxy)pentan-2-yl)amino)methyl)-5-(trifluoromethoxy)phenyl)methanol] | 1.71 nM | 240 nM | 8.66 nM
C[C@H](COCCCCNCc1cc(CO)cc(OC(F)(F)F)c1)Nc1cc(-c2cnns2)cc2[nH]ncc12 [Example 208, (R)-(3-(((4-(2-((6-(1,2,3-thiadiazol-5-yl)-1H-indazol-4-yl)amino)propoxy)butyl)amino)methyl)-5-(trifluoromethoxy)phe-nyl)methanol] | 8.92 nM | 69.7 nM | 69.9 nM
N-(2-(4-((3-chloro-4-(trifluoromethoxy)benzyl)amino)butoxy)ethyl)-6-(azetidine-4-yl)-1H-benzo[d][1,2,3]triazol-4-amine [Example 127] | 5.06 nM | 1380 nM | 306 nM
